For this experiment, the system named is CD2F1 mice, L1210 leukemia ip, survival T/C. Description: NCI In Vivo Anticancer Drug Screen. Data for tumor model L1210 Leukemia (intraperitoneal) in CD2F1 (CDF1) mice. As to conditions: higher = longer survival. An outline of the steps: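 Each value reflects a quotient of treated over vehicle control outcomes in mice with a transplanted tumor.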
Where [1] appears, read: endpoint: mean survival time, dose: 100.0 mg/kg/injection, schedule: Q04DX003 (ip), vehicle: saline.
Where [2] appears, read: endpoint: mean survival time, dose: 200.0 mg/kg/injection, schedule: Q04DX003 (ip), vehicle: saline.
The mark [3] stands for this setting: endpoint: mean survival time, dose: 75.0 mg/kg/injection, schedule: Q01DX001 (ip), vehicle: saline.
Setting [4] is: endpoint: mean survival time, dose: 150.0 mg/kg/injection, schedule: Q01DX001 (ip), vehicle: saline.
Setting [5] is: endpoint: mean survival time, dose: 100.0 mg/kg/injection, schedule: Q04DX002 (ip), vehicle: saline with Tween-80.
Setting [6] is: endpoint: mean survival time, dose: 200.0 mg/kg/injection, schedule: Q04DX002 (ip), vehicle: saline with Tween-80.

This is an account of results in PubChem BioAssay AID256 (DTP/NCI, 2004).

Values joined by “and” are separate entries in the source; they are usually repeats but may differ in a detail not shown here. Equal values may be shown once. Toxic doses and inconclusive results are not listed. Starred links: 1 amine or outer side, 2 acyl side, 3 side chain; linkers in the order of their positions; H or OH if unused. Positions of bridges follow the written chain, without caps; N, C: chain ends. Non-standard residues stand in square brackets, D forms with d. Residues, ends and D or L forms follow the SMILES beside them. Chains are numbered I, II in the order given. Actinocin(1to9) = Cc1c2oc3c(C)ccc(C(=O)[*:2])c3nc-2c(C(=O)[*:1])c(N)c1=O; NMeV = CN[CH](C(=O)O)C(C)C; Sar = CNCC(=O)O

Take `O=C(OC1CCC(c2ccccc2)C1)c1cc([N+](=O)[O-])cc([N+](=O)[O-])c1` (stereo not drawn): the T/C by setting is: (endpoint: mean survival time, dose: 75.0 mg/kg/injection, schedule: Q01DX001 (ip), vehicle: other) 92 % of control; (endpoint: mean survival time, dose: 150.0 mg/kg/injection, schedule: Q01DX001 (ip), vehicle: other) 92 % of control; (endpoint: mean survival time, dose: 300.0 mg/kg/injection, schedule: Q01DX001 (ip), vehicle: other) 92 % of control.

Take `CCC(CC(=O)O)c1ccccc1` (stereo not drawn): the T/C was 96 % of control (endpoint: mean survival time, dose: 50.0 mg/kg/injection, schedule: Q04DX003 (ip), vehicle: saline); 100 % of control under setting [1]; 102 % of control under setting [2].

As for `CCCCOC(=O)c1ccc(NC(=O)Nc2cc([N+](=O)[O-])ccc2C)cc1`, the T/C (endpoint: mean survival time, dose: 50.0 mg/kg/injection, schedule: Q01DX009 (ip), vehicle: Klucel (hydroxypropylcellulose) (HPC)) was 101 % of control; the T/C (endpoint: mean survival time, dose: 100.0 mg/kg/injection, schedule: Q01DX009 (ip), vehicle: Klucel (hydroxypropylcellulose) (HPC)) is 89 % of control; the T/C (endpoint: mean survival time, dose: 200.0 mg/kg/injection, schedule: Q01DX009 (ip), vehicle: Klucel (hydroxypropylcellulose) (HPC)) is 104 % of control.

Regarding `NCc1ccc(N)cc1`, the T/C reads like this: under setting [3], 98 % of control; under setting [4], 95 % of control; (endpoint: mean survival time, dose: 300.0 mg/kg/injection, schedule: Q01DX001 (ip), vehicle: saline) 96 % of control.

As for `CCC(C)C1NC(=O)C(NC(=O)c2c3nc4c(C(=O)NC5C(=O)NC(C(C)CC)C(=O)N6CCCC6C(=O)N(C)CC(=O)N(C)C(C(C)C)C(=O)OC5C)ccc(C)c4oc-3c(C)c(=O)c2N)C(C)OC(=O)C(C(C)C)N(C)C(=O)CN(C)C(=O)C2CCCN2C1=O` (stereo not drawn) (I: TIP[Sar][NMeV] / II: TIP[Sar][NMeV]; ester I:1-I:C, II:1-II:C; linker I:N-II:N via Actinocin(1to9); configuration not given here), the T/C was 112 % of control (endpoint: mean survival time, dose: 0.25 mg/kg/injection, schedule: Q01DX001 (ip), vehicle: saline) and 120 % of control (endpoint: mean survival time, dose: 0.5 mg/kg/injection, schedule: Q01DX001 (ip), vehicle: saline).

For `O=C1C(=O)c2cccnc2C(NCc2ccccc2)=C1Cl`, the T/C reads like this: (endpoint: mean survival time, dose: 75.0 mg/kg/injection, schedule: Q04DX003 (ip), vehicle: saline) 98 % of control; (endpoint: mean survival time, dose: 150.0 mg/kg/injection, schedule: Q04DX003 (ip), vehicle: saline) 101 % of control; (endpoint: mean survival time, dose: 300.0 mg/kg/injection, schedule: Q04DX003 (ip), vehicle: saline) 96 % of control.

In the case of `c1ccc2c(c1)OB(C1CCCC1)O2`, the T/C by setting is: (endpoint: mean survival time, dose: 100.0 mg/kg/injection, schedule: Q01DX009 (ip), vehicle: other) 93 % of control; (endpoint: mean survival time, dose: 200.0 mg/kg/injection, schedule: Q01DX009 (ip), vehicle: other) 105 % of control; (endpoint: mean survival time, dose: 400.0 mg/kg/injection, schedule: Q01DX009 (ip), vehicle: other) 109 % of control.

Regarding `[O-][n+]1c(CN2CCCCC2)nc2cccc3c2c1-c1ccccc1-3`, the T/C by setting is: (endpoint: mean survival time, dose: 12.5 mg/kg/injection, schedule: Q01DX009 (ip), vehicle: saline with Tween-80) 104 % of control; (endpoint: mean survival time, dose: 25.0 mg/kg/injection, schedule: Q01DX009 (ip), vehicle: saline with Tween-80) 103 % of control; (endpoint: mean survival time, dose: 50.0 mg/kg/injection, schedule: Q01DX009 (ip), vehicle: saline with Tween-80) 103 % of control; (endpoint: mean survival time, dose: 100.0 mg/kg/injection, schedule: Q01DX009 (ip), vehicle: saline with Tween-80) 113 % of control; (endpoint: mean survival time, dose: 200.0 mg/kg/injection, schedule: Q01DX009 (ip), vehicle: saline with Tween-80) 109 % of control.

As to `COc1ccncn1`, the T/C is 98 % of control under setting [5]; 95 % of control under setting [6]; 106 % of control (endpoint: mean survival time, dose: 400.0 mg/kg/injection, schedule: Q04DX002 (ip), vehicle: saline with Tween-80).

In the case of `COc1cc(N)c2nc(C(O)C(O)C(O)CO)cnc2c1` (stereo not drawn), the T/C reads like this: (endpoint: median survival time, dose: 12.5 mg/kg/injection, schedule: Q01DX005 (ip), vehicle: distilled water + Tween-80) 98 % of control; (endpoint: median survival time, dose: 25.0 mg/kg/injection, schedule: Q01DX005 (ip), vehicle: distilled water + Tween-80) 90 % of control; (endpoint: median survival time, dose: 50.0 mg/kg/injection, schedule: Q01DX005 (ip), vehicle: distilled water + Tween-80) 89 % of control; (endpoint: median survival time, dose: 100.0 mg/kg/injection, schedule: Q01DX005 (ip), vehicle: distilled water + Tween-80) 92 % of control; (endpoint: median survival time, dose: 200.0 mg/kg/injection, schedule: Q01DX005 (ip), vehicle: distilled water + Tween-80) 95 % of control.

In the case of `COC1=C(OCc2ccccc2)C(=O)OC1C(O)CO` (stereo not drawn), the T/C is, setting by setting: (endpoint: mean survival time, dose: 100.0 mg/kg/injection, schedule: Q01DX001 (ip), vehicle: saline with Tween-80) 98 % of control; (endpoint: mean survival time, dose: 200.0 mg/kg/injection, schedule: Q01DX001 (ip), vehicle: saline with Tween-80) 97 % of control; (endpoint: mean survival time, dose: 400.0 mg/kg/injection, schedule: Q01DX001 (ip), vehicle: saline with Tween-80) 93 % of control.

Consider `c1ccc(P2(c3ccccc3)=NP(c3ccccc3)(c3ccccc3)=NP(c3ccccc3)(c3ccccc3)=N2)cc1`, for which the T/C is, setting by setting: under setting [1], 102 % of control; under setting [2], 94 % of control; (endpoint: mean survival time, dose: 400.0 mg/kg/injection, schedule: Q04DX003 (ip), vehicle: saline) 96 % of control.

For the compound `c1ccc(C(c2ccccc2)n2ccnc2)cc1`, the T/C runs as follows: under setting [3], 100 % of control; under setting [4], 101 % of control.

On to `CCOC(=O)CCC(NC(=O)c1ccc(N(Cc2ccccc2)Cc2cnc3nc(N)nc(N)c3n2)cc1)C(=O)OCC` (stereo not drawn), for which the T/C is 87 % of control (endpoint: mean survival time, dose: 100.0 mg/kg/injection, schedule: Q01DX001 (ip), vehicle: Klucel (hydroxypropylcellulose) (HPC)); 94 % of control (endpoint: mean survival time, dose: 200.0 mg/kg/injection, schedule: Q01DX001 (ip), vehicle: Klucel (hydroxypropylcellulose) (HPC)); 97 % of control (endpoint: mean survival time, dose: 400.0 mg/kg/injection, schedule: Q01DX001 (ip), vehicle: Klucel (hydroxypropylcellulose) (HPC)).

On to `O=[N+]([O-])c1ccc(COc2ccc(Cl)cc2)cc1`, for which the T/C (endpoint: mean survival time, dose: 100.0 mg/kg/injection, schedule: Q04DX003 (ip), vehicle: saline with Tween-80) was 92 % of control; the T/C (endpoint: mean survival time, dose: 200.0 mg/kg/injection, schedule: Q04DX003 (ip), vehicle: saline with Tween-80) is 103 % of control; the T/C (endpoint: mean survival time, dose: 400.0 mg/kg/injection, schedule: Q04DX003 (ip), vehicle: saline with Tween-80) was 94 % of control.

For `Nc1ccn([C@@H]2C=C(CO)[C@@H](O)[C@H]2O)c(=O)n1`, the T/C (endpoint: median survival time, dose: 0.44 mg/kg/injection, schedule: Q01DX009 (ip), vehicle: saline) is 162 % of control and 168 % of control; the T/C (endpoint: median survival time, dose: 0.45 mg/kg/injection, schedule: Q01DX009 (ip), vehicle: saline) was 153 % of control; the T/C (endpoint: median survival time, dose: 0.67 mg/kg/injection, schedule: Q01DX009 (ip), vehicle: saline) was 180 % of control (2×) and 191 % of control; the T/C (endpoint: median survival time, dose: 0.67 mg/kg/injection, schedule: Q01DX009 (oral), vehicle: saline) is 101 % of control; the T/C (endpoint: median survival time, dose: 1.5 mg/kg/injection, schedule: Q01DX009 (oral), vehicle: saline) was 155 % of control and 205 % of control; the T/C (endpoint: median survival time, dose: 2.0 mg/kg/injection, schedule: Q04DX003 (ip), vehicle: saline) was 171 % of control. For the same compound, the T/C is 117 % of control and 246 % of control (endpoint: median survival time, dose: 2.25 mg/kg/injection, schedule: Q01DX009 (ip), vehicle: saline); 157 % of control and 225 % of control (endpoint: median survival time, dose: 2.25 mg/kg/injection, schedule: Q01DX009 (oral), vehicle: saline); 93 % of control (endpoint: median survival time, dose: 4.0 mg/kg/injection, schedule: Q01DX009 (ip), vehicle: saline); 191 % of control (endpoint: median survival time, dose: 4.0 mg/kg/injection, schedule: Q04DX003 (ip), vehicle: saline); 123 % of control and 104 % of control (endpoint: median survival time, dose: 5.05 mg/kg/injection, schedule: Q01DX009 (oral), vehicle: saline); 183 % of control (endpoint: median survival time, dose: 8.0 mg/kg/injection, schedule: Q04DX003 (ip), vehicle: saline). Besides, the T/C is, setting by setting: (endpoint: median survival time, dose: 250.0 micrograms/kg/injection, schedule: Q03HX024 (ip), vehicle: saline) 187 % of control; (endpoint: median survival time, dose: 500.0 micrograms/kg/injection, schedule: Q03HX024 (ip), vehicle: saline) 216 % of control; (endpoint: median survival time, dose: 2000.0 micrograms/kg/injection, schedule: Q03HX024 (ip), vehicle: saline) 96 % of control.

`Nc1cccc2c1C(=O)c1ccccc1C2=O`: the T/C is 97 % of control (endpoint: mean survival time, dose: 100.0 mg/kg/injection, schedule: Q04DX003 (ip), vehicle: other); 92 % of control (endpoint: mean survival time, dose: 200.0 mg/kg/injection, schedule: Q04DX003 (ip), vehicle: other); 95 % of control (endpoint: mean survival time, dose: 400.0 mg/kg/injection, schedule: Q04DX003 (ip), vehicle: other).

For `CCC(CC)(CC)CCS(=O)[O-].[C-]#[O+].[C-]#[O+].[Fe+6].[c-]1[c-][c-][cH-][c-]1`, the T/C was 93 % of control (endpoint: mean survival time, dose: 50.0 mg/kg/injection, schedule: Q04DX002 (ip), vehicle: saline with Tween-80); 93 % of control under setting [5]; 104 % of control under setting [6].
